This is an account of results in patent publication US20080255244A1, “CaM Kinase II Inhibitor Improves Retinoic Acid Therapy and Inhibits the Proliferation of Myeloid Leukemia Cells” (Fred Hutchinson Cancer Research Center, priority 2007, published 2008).

Each structure is given as a SMILES string.

For one assay, the system named is C/EBPε RARE. Briefly: ChIP at the C/EBPε promoter RARE in HL60 cells. Conditions: ATRA 1 uM. It is filed as cell-based, human. How it is done: FIG. 6. Retinoic acid induces changes in the association of CaMKIIγ with the C/EBPε promoter RARE. […] (B) The human C/EBPε 5′ region indicating the location of the ChIP PCR primers. (C) ChIP assays. HL60 cell chromatin from cells treated with ATRA (1 uM) for the indicated time was immunoprecipitated with the indicated antibodies, the DNA isolated and subjected to PCR utilizing the indicated C/EBPε promoter primer pairs.
ChIP. HL60 cells incubated for various periods of time after ATRA (1 μM) treatment were harvested and crosslinked using 1% formaldehyde for 15 minutes at 37° and incubated another 15 minutes at room temperature with 125 mM glycine. Cells then were rinsed and washed three times with cold PBS. The cell pellets were resuspended in 0.2-2 ml of SDS lysis buffer (1% SDS, 10 mM EDTA, […] Tris-HCL, pH 8.1) with protease inhibitors(1 μg/ml leupeptin, […] aprotinin, 1 mM PMSF, 1 μg/ml pepstatin A, 10 μM antipain, 10 μM bestatin, 1 mM NaF, and 1× phosphatase inhibitor cocktail I/II) and sonicated three times at 20 s each to reduce DNA length to 200-800 bp. Supernatants were collected by centrifugation for 10 minutes at 13,200 rpm at 4° and diluted in 10 fold dilution buffer (0.01% SDS, 1.1% Triton X-100, 1.2 mm EDTA, 16.7 mM Tris-HCl, pH 8.1, 167 mM NaCl) with the above protease inhibitors. […]

The subject of another assay is HL-60 cells. Briefly: Differentiation of HL-60 cells (Wright Giemsa morphology, Cd11b FACS). Conditions: single agent; five days; KN62 5 μM. It is filed as cell-based, human. How it is done:
FIG. 7. KN-62 regulates the differentiation of myeloid leukemia cell lines. (A) Wright Giemsa-stained HL-60 cells either (a) uninduced or treated for five days with (b) KN62 or (c) ATRA. (d) CD11b expression in HL-60 cells after five days exposure to KN62 (5 μM) or ATRA (1 μM). (B) Wright-Giemsa stained NB4 cells treated for five days with KN-62 (5 μM) and ATRA as indicated. […] (C) Cd11b expression of NB4 cells treated for five days with the indicated concentrations of RA and/or KN-62. (D) Western blots with the indicated antibodies were performed on HL60 cell lysates following incubation with KN62 for the indicated period of time. (E) Western blots of NB4 cell lysates following a five day incubation with the indicated compounds.
Antibodies and chemical reagents. Antibodies against RARα, βtubulin, CaMKIIα, CaMKIIβ, CaMKIIγ, CaMKIIδ, CaMKIα, as well as phosphospecific antibodies against CaMKII were all purchased from Santa Cruz Biotechnology. Antibodies against N-CoR and SMRT were from Upstate Biotechnology. CaMKIV antibody was from BD Biosciences. Anti-FLAG antibody was from Sigma while anti-HA antibody from Novachem. Quantitation of CD11b surface antigen expression was performed utilizing the fluorescent-activated cell sorter (FACS) with PE-conjugated anti-CD11b antibody from Becton Dickinson. KN-62, KN-93 and ionomycin were obtained from Calbiochem. […]

The subject of the next assay is MPRO cell line. Briefly: Granulocytic differentiation of MPRO cell line. Type of assay: cell-based. To be noted: single agent; not shown. From the text:
Thus the CaMK inhibitor KN-62 not only enhances RAR transcriptional activity but either as a single agent or in combination with relatively low doses of RA can induce/enhance the differentiation of different myeloid leukemia cell lines.

A further assay relates to KCL-22 cells. Briefly: Differentiation of KCL-22 cells. Type of assay: cell-based, human. Conditions: preliminary studies; not shown. The source says: (§1) Pharmacological CaMK inhibitors trigger myeloid leukemia cell differentiation. Particularly compelling evidence for the physiological importance of the CaMKII—mediated regulation of RAR activity is our experimental observation that KN-62, a pharmacological inhibitor of the CaMKs, enhances both RAR transcriptional activity (FIG. 1B) and the differentiation of certain myeloid leukemia cell lines (FIG. 7). Acute myelogenous leukemia (AML) is a heterogenous disease, and successful therapy with RA has been generally confined to those leukemias harboring RARα chromosome translocations.

The subject of assay [1] is HL60R cells (mutated RARα). Briefly: Differentiation of HL60R cells. Conditions: HL60R harbor a mutated RARα. It is filed as cell-based, human.
From the text: as §1

A further assay relates to K562 cells. Briefly: K562 proliferation in liquid suspension culture (cell counts). Type of assay: cell-based, human.
For a further assay, the system named is KG-1 cells. Put plainly: KG-1 proliferation in liquid suspension culture. Type of assay: cell-based, human. Here is the method: (§2) FIG. 11. […] (A) K562 cells were seeded in liquid suspension culture at 5×10^4 cells/ml in the presence or absence of the indicated concentration of compounds, and cell counts were obtained at the indicated time. (B) The indicated myeloid leukemia cell lines were seeded in liquid suspension culture at 5×10^4 cells/ml in the presence or absence of KN93, and cell counts obtained at the indicated time. (C) K562 cells were electroporated with the LXSN expression vector harboring the kinase dead, Lys^43 mutated, truncated CaMKII construct (kdCaMKII) as well as with the control (empty) LXSN vector. The electroporated cells were diluted into 96 well plates in liquid suspension culture in the presence of G418 (1 mg/ml). Following eight days of culture the total number of discrete, actively proliferating G418 resistant colonies within individual wells was determined.
(§3) Cell lines. All leukemia cell lines are cultured at 37° in RPMI supplemented with 5% heat-inactivated fetal calf serum.

For the next assay, the system named is KCL22 cells. Briefly: KCL22 proliferation in liquid suspension culture. It is filed as cell-based, human. Here is the method: as §2, §3

Turning to `CC1=C(/C=C/C(C)=C/C=C/C(C)=C/C(=O)O)C(C)(C)CCC1` [ATRA, All-trans retinoic acid], in the assay on C/EBPε RARE, the “association of corepressors N-CoR and SMRT with the C/EBPε RARE” value was “rapid displacement”. Further, in the assay on C/EBPε RARE (observed as early as 1-2 hours), the “association of CaMKIIγ with the C/EBPε RARE” value was “dissociation”.
Consider `CN([C@@H](Cc1ccc(OS(=O)(=O)c2cccc3cnccc23)cc1)C(=O)N1CCN(c2ccccc2)CC1)S(=O)(=O)c1cccc2cnccc12` [KN-62], for which the “HL-60 differentiation (morphologic differentiation and Cd11b expression)” value in the assay on HL-60 cells was “potent inducer”. Also, the “granulocytic differentiation of MPRO” value with MPRO cell line is “enhanced”. Further, the “differentiation of KCL-22” value in the assay with KCL-22 cells is listed as “does not induce”. In addition, in assay [1], the “KN62-mediated differentiation of HL60R” value is recorded as “do not observe any”.
Turning to `COc1ccc(S(=O)(=O)N(CCO)c2ccccc2CN(C)C/C=C/c2ccc(Cl)cc2)cc1` [KN-93], the K562 viability entry with K562 cells was “did not affect”. Further, the K562 cell proliferation result in the assay on K562 cells (seeded at 5×10^4 cells/ml, cell counts) was “inhibited the proliferation of K562 cells in a dose dependent manner”. Further, the cell proliferation entry in the assay on KG-1 cells and with KCL22 cells was “inhibition” throughout. For the same compound, the “cell viability or morphologic differentiation” value with KG-1 cells and with KCL22 cells was “without any significant effect” throughout.
